{"source": "ChEMBL document CHEMBL1221210", "about": "“A Cdc7 kinase inhibitor restricts initiation of DNA replication and has antitumor activity” (Nat Chem Biol, 2008)", "key": {"[1]": {"test_system": "HeLa", "test": "Inhibition of DNA replication in human HeLa cells assessed as interorigin distance between homogenous DNA fibers at 20 uM after 6 hrs by immunofluorescence assay", "assay_type": "functional"}, "[2]": {"test_system": "U2OS", "test": "Induction of cell cycle arrest in human U2OS cells expressing p53 gene assessed as residual DNA synthesis at 10 uM after 24 hrs by FACS analysis", "assay_type": "functional"}, "[3]": {"test": "Induction of cell cycle arrest in p53 deficient human HCT116-E6 cells assessed as residual DNA synthesis at 10 uM after 24 hrs by FACS analysis", "assay_type": "functional"}, "[4]": {"test_system": "MCF7", "test": "Induction of cell cycle arrest in human MCF7 cells expressing p53 gene assessed as accumulation at subG1 phase at 5 uM after 24hrs by FACS analysis", "assay_type": "functional"}, "[5]": {"test_system": "HeLa", "test": "Induction of cell cycle arrest in p53 deficient human HeLa cells assessed as residual DNA synthesis at 10 uM after 24 hrs by FACS analysis", "assay_type": "functional"}, "[6]": {"test_system": "HCT-116", "test": "Antiproliferative activity against human HCT116 cells expressing p53 gene after 72 hrs by proliferative assay", "assay_type": "functional, cell-based", "conditions": "HCT-116, 72 h"}, "[7]": {"test_system": "HeLa", "test": "Inhibition of DNA synthesis in human HeLa cells assessed as Brd-U uptake at 5 uM after 9 hrs by FACS analysis", "assay_type": "functional", "parameters": "scale not given: the % may be the effect or the level left"}, "[8]": {"test_system": "SW480", "test": "Induction of cell cycle arrest in p53 deficient human SW480 cells assessed as residual DNA synthesis at 5 uM after 24 hrs by FACS analysis", "assay_type": "functional"}, "[9]": {"test_system": "HeLa", "test": "Antiproliferative activity against p53 deficient human HeLa cells after 72 hrs", "assay_type": "functional, cell-based"}, "[10]": {"test_system": "PC-3", "test": "Induction of cell cycle arrest in human PC3 cells expressing p53 gene assessed as accumulation at subG1 phase at 10 uM after 24 hrs by FACS analysis", "assay_type": "functional"}, "[11]": {"test_system": "HCT-15", "test": "Induction of cell cycle arrest in human HCT15 cells expressing p53 gene assessed as accumulation at subG1 phase at 10 uM after 24 hrs by FACS analysis", "assay_type": "functional"}, "[12]": {"test_system": "PC-3", "test": "Induction of cell cycle arrest in human PC3 cells expressing p53 gene assessed as residual DNA synthesis at 5 uM after 24 hrs by FACS analysis", "assay_type": "functional"}, "[13]": {"test_system": "U2OS", "test": "Antiproliferative activity against human U2OS cells expressing p53 gene after 72 hrs by proliferative assay", "assay_type": "functional, cell-based"}, "[14]": {"test_system": "HeLa", "test": "Inhibition of DNA replication in human HeLa cells assessed as interorigin distance between homogenous DNA fibers at 5 uM after 4 hrs by immunofluorescence assay", "assay_type": "functional"}, "[15]": {"test_system": "PC-3", "test": "Antiproliferative activity against human PC3 cells expressing p53 gene after 72 hrs by proliferative assay", "assay_type": "functional, cell-based", "conditions": "PC-3, 72 h"}, "[16]": {"test_system": "HeLa", "test": "Inhibition of DNA replication in human HeLa cells assessed as increase in replication fork speed per min at 5 uM after 2 hrs by immunofluorescence assay", "assay_type": "functional"}, "[17]": {"test_system": "NHDF", "test": "Induction of cell cycle arrest in NHDF assessed as accumulation at subG1 phase at 5 uM after 24hrs by propidium-iodine staining based FACS analysis", "conditions": "human"}, "[18]": {"test_system": "HCT-15", "test": "Induction of cell cycle arrest in human HCT15 cells expressing p53 gene assessed as residual DNA synthesis at 5 uM after 24 hrs by FACS analysis", "assay_type": "functional"}, "[19]": {"test": "Induction of cell cycle arrest in p53 deficient human A2780/E6 cells as accumulation at subG1 phase at 5 uM after 24hrs by FACS analysis", "assay_type": "functional"}, "[20]": {"test_system": "HCT-116", "test": "Induction of cell cycle arrest in human HCT116 cells expressing p53 gene assessed as residual DNA synthesis at 10 uM after 24 hrs by FACS analysis", "assay_type": "functional"}, "[21]": {"test_system": "HeLa", "test": "Inhibition of DNA replication in human HeLa cells assessed as increase in replication fork speed per min at 2 uM after 2 hrs by immunofluorescence assay", "assay_type": "functional"}, "[22]": {"test_system": "HeLa", "test": "Induction of cell cycle arrest in p53 deficient human HeLa cells assessed as residual DNA synthesis at 5 uM after 24hrs by FACS analysis", "assay_type": "functional"}, "[23]": {"test_system": "HeLa", "test": "Inhibition of DNA replication in human HeLa cells assessed as interorigin distance between homogenous DNA fibers at 2 uM after 6 hrs by immunofluorescence assay", "assay_type": "functional"}, "[24]": {"test_system": "U2OS", "test": "Induction of cell cycle arrest in human U2OS cells expressing p53 gene assessed as residual DNA synthesis at 5 uM after 24 hrs by FACS analysis", "assay_type": "functional"}, "[25]": {"test_system": "HeLa", "test": "Inhibition of DNA replication in human HeLa cells assessed as increase in replication fork speed per min at 5 uM after 6 hrs by immunofluorescence assay", "assay_type": "functional"}, "[26]": {"test_system": "HeLa", "test": "Inhibition of DNA replication in human HeLa cells assessed as interorigin distance between homogenous DNA fibers at 2 uM after 2 hrs by immunofluorescence assay", "assay_type": "functional"}, "[27]": {"test_system": "Jurkat", "test": "Induction of cell cycle arrest in p53 deficient human Jurkat cells assessed as residual DNA synthesis at 5 uM after 24 hrs by FACS analysis", "assay_type": "functional"}, "[28]": {"test_system": "MCF7", "test": "Induction of cell cycle arrest in human MCF7 cells expressing p53 gene assessed as accumulation at subG1 phase at 10 uM after 24hrs by FACS analysis", "assay_type": "functional"}, "[29]": {"test_system": "Mus musculus", "test": "AUC in SCID mouse carrying human HL60 cells at 20 mg/kg, iv after 10 hrs", "assay_type": "ADME, organism-based, HL-60", "parameters": "time < 10 hr, dose 20 mg/kg, route intravenous", "conditions": "in vivo"}, "[30]": {"test_system": "SW480", "test": "Induction of cell cycle arrest in p53 deficient human SW480 cells assessed as accumulation at subG1 phase at 10 uM after 24hrs by FACS analysis", "assay_type": "functional"}, "[31]": {"test": "Antiproliferative activity against p53 deficient human HCT116/E6 cells after 72 hrs by proliferative assay", "assay_type": "functional, cell-based", "conditions": "HCT116-E6, 72 h"}, "[32]": {"test_system": "OVCAR-8", "test": "Induction of cell cycle arrest in p53 deficient human OVCAR8 cells assessed as accumulation at subG1 phase at 10 uM after 24 hrs by FACS analysis", "assay_type": "functional"}, "[33]": {"test_system": "Jurkat", "test": "Induction of cell cycle arrest in p53 deficient human Jurkat cells assessed as accumulation at subG1 phase at 5 uM after 24hrs by FACS analysis", "assay_type": "functional"}, "[34]": {"test": "Induction of cell cycle arrest in p53 deficient human HCT116-E6 cells assessed as accumulation at subG1 phase at 5 uM after 24hrs by FACS analysis", "assay_type": "functional"}, "[35]": {"target": "Serine/threonine-protein kinase Nek6 (Homo sapiens, UniProt Q9HC98)", "sequence (Q9HC98 whole entry)": "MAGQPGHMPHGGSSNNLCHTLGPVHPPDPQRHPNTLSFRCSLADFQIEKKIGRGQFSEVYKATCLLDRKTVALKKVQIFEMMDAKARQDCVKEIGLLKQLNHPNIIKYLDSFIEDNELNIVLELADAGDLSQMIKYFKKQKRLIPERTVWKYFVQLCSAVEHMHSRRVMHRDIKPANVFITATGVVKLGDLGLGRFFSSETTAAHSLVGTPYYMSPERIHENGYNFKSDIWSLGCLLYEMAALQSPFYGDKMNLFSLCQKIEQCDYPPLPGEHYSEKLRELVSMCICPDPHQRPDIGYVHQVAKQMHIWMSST", "test": "Inhibition of Nek6"}, "[36]": {"target": "Protein kinase C beta type (Homo sapiens, UniProt P05771)", "sequence (P05771 whole entry)": "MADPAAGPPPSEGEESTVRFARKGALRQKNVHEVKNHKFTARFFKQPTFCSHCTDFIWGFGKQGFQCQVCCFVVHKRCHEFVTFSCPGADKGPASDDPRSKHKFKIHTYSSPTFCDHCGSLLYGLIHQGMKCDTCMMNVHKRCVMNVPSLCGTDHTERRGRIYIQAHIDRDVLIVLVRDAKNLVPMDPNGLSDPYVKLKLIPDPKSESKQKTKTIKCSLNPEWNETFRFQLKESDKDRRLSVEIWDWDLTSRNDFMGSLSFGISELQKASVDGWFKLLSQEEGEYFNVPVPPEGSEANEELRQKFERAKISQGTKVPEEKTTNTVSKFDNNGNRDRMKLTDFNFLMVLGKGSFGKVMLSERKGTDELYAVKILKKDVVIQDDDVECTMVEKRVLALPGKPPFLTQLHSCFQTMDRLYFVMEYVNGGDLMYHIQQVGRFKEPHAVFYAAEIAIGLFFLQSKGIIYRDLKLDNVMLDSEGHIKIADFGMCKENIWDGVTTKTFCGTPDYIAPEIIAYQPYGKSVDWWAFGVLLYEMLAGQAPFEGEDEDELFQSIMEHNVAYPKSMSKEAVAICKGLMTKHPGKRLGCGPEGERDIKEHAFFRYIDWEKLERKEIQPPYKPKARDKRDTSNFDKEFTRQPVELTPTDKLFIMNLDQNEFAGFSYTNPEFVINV", "test": "Inhibition of PKCbeta"}, "[37]": {"test_system": "NHDF", "test": "Induction of cell cycle arrest in NHDF expressing p53 gene assessed as residual DNA synthesis at 5 uM after 24 hrs by FACS analysis", "assay_type": "cell-based", "conditions": "human"}, "[38]": {"target": "Inhibitor of nuclear factor kappa-B kinase subunit beta (Homo sapiens, UniProt O14920)", "sequence (O14920 whole entry)": "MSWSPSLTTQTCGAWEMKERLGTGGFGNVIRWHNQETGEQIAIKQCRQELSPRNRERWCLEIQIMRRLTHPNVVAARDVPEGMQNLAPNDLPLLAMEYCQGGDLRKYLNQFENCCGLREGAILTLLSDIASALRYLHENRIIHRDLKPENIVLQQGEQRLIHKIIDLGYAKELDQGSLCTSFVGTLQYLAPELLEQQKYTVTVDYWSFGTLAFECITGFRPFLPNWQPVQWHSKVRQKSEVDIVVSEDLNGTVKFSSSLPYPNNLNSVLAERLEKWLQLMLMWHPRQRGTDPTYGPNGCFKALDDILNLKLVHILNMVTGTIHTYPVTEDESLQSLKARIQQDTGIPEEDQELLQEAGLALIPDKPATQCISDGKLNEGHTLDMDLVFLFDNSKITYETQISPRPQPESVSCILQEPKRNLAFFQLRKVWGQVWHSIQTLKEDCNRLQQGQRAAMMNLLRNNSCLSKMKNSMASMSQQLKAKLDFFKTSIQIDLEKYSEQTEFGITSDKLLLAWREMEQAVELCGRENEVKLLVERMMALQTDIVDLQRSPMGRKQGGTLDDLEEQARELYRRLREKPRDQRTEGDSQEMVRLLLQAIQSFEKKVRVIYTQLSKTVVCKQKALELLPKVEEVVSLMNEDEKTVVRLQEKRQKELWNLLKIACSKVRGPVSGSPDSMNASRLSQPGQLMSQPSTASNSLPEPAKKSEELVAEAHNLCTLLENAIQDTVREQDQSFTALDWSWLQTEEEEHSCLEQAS", "test": "Inhibition of IKK2"}, "[39]": {"test_system": "SF-539", "test": "Induction of cell cycle arrest in human SF539 cells expressing p53 gene assessed as accumulation at subG1 phase at 5 uM after 24hrs by FACS analysis", "assay_type": "functional"}, "[40]": {"test_system": "NHDF", "test": "Induction of cell cycle arrest in NHDF expressing p53 gene assessed as accumulation at subG1 phase at 5 uM after 24hrs by FACS analysis", "assay_type": "cell-based", "conditions": "human"}, "[41]": {"test_system": "MCF7", "test": "Induction of cell cycle arrest in human MCF7 cells expressing p53 gene assessed as residual DNA synthesis at 10 uM after 24 hrs by FACS analysis", "assay_type": "functional"}}, "data": [{"smiles": "O=C1NCCc2[nH]c(-c3ccncc3)cc21", "values": [{"measurement": "Activity", "setting": "[1]", "result": 287, "unit": "kilobase"}, {"measurement": "Activity", "setting": "[2]", "result": "<3", "unit": "%"}, {"measurement": "Activity", "setting": "[3]", "result": "<3", "unit": "%"}, {"measurement": "Activity", "setting": "[4]", "result": 3, "unit": "%"}, {"measurement": "Activity", "setting": "[5]", "result": "<3", "unit": "%"}, {"measurement": "IC50", "setting": "[6]", "result": 970, "unit": "nM"}, {"measurement": "Activity", "setting": "[7]", "result": 9, "unit": "%"}, {"measurement": "Activity", "setting": "[8]", "result": "<3", "unit": "%"}, {"measurement": "IC50", "setting": "[9]", "result": 1830, "unit": "nM"}, {"measurement": "Activity", "setting": "[10]", "result": 3, "unit": "%"}, {"measurement": "Activity", "setting": "[11]", "result": 3, "unit": "%"}, {"measurement": "Activity", "setting": "[12]", "result": 3, "unit": "%"}, {"measurement": "IC50", "setting": "[13]", "result": 1490, "unit": "nM"}, {"measurement": "Activity", "setting": "[14]", "result": 288, "unit": "kilobase"}, {"measurement": "IC50", "setting": "[15]", "result": 4.59, "unit": "µM"}, {"measurement": "Activity", "setting": "[16]", "result": 1.86, "unit": "kilobase"}, {"measurement": "Activity", "setting": "[17]", "result": 1.6, "unit": "%"}, {"measurement": "Activity", "setting": "[18]", "result": "<3", "unit": "%"}, {"measurement": "Activity", "setting": "[19]", "result": ">20", "unit": "%"}, {"measurement": "Activity", "setting": "[20]", "result": "<3", "unit": "%"}, {"measurement": "Activity", "setting": "[21]", "result": 1.8, "unit": "kilobase"}, {"measurement": "Activity", "setting": "[22]", "result": "<3", "unit": "%"}, {"measurement": "Activity", "setting": "[23]", "result": 241, "unit": "kilobase"}, {"measurement": "Activity", "setting": "[24]", "result": "<3", "unit": "%"}, {"measurement": "Activity", "setting": "[25]", "result": 2.14, "unit": "kilobase"}, {"measurement": "Activity", "setting": "[26]", "result": 225, "unit": "kilobase"}, {"measurement": "Activity", "setting": "[27]", "result": "<3", "unit": "%"}, {"measurement": "Activity", "setting": "[28]", "result": "<3", "unit": "%"}, {"measurement": "AUC", "setting": "[29]", "result": 47, "unit": "µM·h"}, {"measurement": "Activity", "setting": "[30]", "result": ">20", "unit": "%"}, {"measurement": "IC50", "setting": "[31]", "result": 1480, "unit": "nM"}, {"measurement": "Activity", "setting": "[32]", "result": 3, "unit": "%"}, {"measurement": "Activity", "setting": "[33]", "result": ">20", "unit": "%"}, {"measurement": "Activity", "setting": "[34]", "result": 3, "unit": "%"}, {"measurement": "IC50", "setting": "[35]", "result": "> 10", "unit": "µM"}, {"measurement": "IC50", "setting": "[36]", "result": "> 10", "unit": "µM"}, {"measurement": "Activity", "setting": "[37]", "result": "< 3", "unit": "%"}, {"measurement": "IC50", "setting": "[38]", "result": "> 10", "unit": "µM"}, {"measurement": "Activity", "setting": "[39]", "result": 3, "unit": "%"}, {"measurement": "Activity", "setting": "[40]", "result": "< 3", "unit": "%"}, {"measurement": "Activity", "setting": "[41]", "result": "<3", "unit": "%"}]}]}
